Reference: patent publication US4740233A, “Substituted 1,2,4-triazolo[1,5-a]-pyrimidine-2-sulfonamides and compositions and methods of controlling undesired vegetation and suppressing the nitrification of ammonium nitrogen in soil” (The Dow Chemical Company, priority 1986, dated 1988)

How the values were obtained:
[1] = system: annual sugar beet variety (SLC03); assay: Plant growth regulator activity, preemergence; assay type: in vivo; conditions: Beta vulgaris, pre-emergence; 6-7 weeks; read-out: Bolting Inhibition (preemergence), concentration with observed effect
From the text: (§1) Using a regular biennial variety, even a bolting-susceptible variety would require a cold treatment of around 10-16 weeks plus a hormone treatement in conjunction with specific light intensities. Thus, for a screening organism, we selected one which would consistently produce bolting on a regular schedule. The screen is run with an annual sugar beet variety (SLC03) provided by Dr. Richard J. Hecker, Fort Collins, Colo. This variety is an inbred which bolts in the 6- to 8-leaf stage without any need for vernalization. This allows the screen to be run entirely in the greenhouse with all 110 chemical compounds tested on one tray. The sugarbeets are grown in 3×3 inch square pots in a greenhouse sandy loam potting mix. The sugarbeets are sprayed with test compounds when they are 2 to 3 weeks old (2 true leaves). The compounds are dissolved in acetone and diluted with water containing Tween 20 as a wetting agent. The concentration of acetone in the final spray is 20% and the concentration of Tween 20 is 0.05 percent. The plants are examined for the appearance of a bolt 4 weeks after spraying.
Preemergence tests are conducted by spraying formulated chemical on seeds placed on potting soil. The sprayed seeds are then covered with 1/4 inch of potting soil and the pots are watered. Bolting is evaluated 6-7 weeks after the initiation of the test. At this time untreated plants have a vigorous bolting stem with visible flowers.

[2] = system: annual sugar beet variety (SLC03); assay: Plant growth regulator activity, postemergence; assay type: in vivo; conditions: Beta vulgaris, post-emergence, 672 h, 4 weeks after spraying; read-out: Bolting Inhibition (postemergence), concentration with observed effect
From the text: as §1

cotton = assay: Preemergent control of plant species; assay type: in vivo, Gossypium spp.; conditions: Gossypium hirsutum, pre-emergence, 336 h; 0.25 lb/acre; read-out: percent preemergent control
Method in brief: (§2)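 Test compositions were applied evenly to the surface of freshly seeded soil beds and kept under greenhouse conditions for two weeks. Percent control reflects growth reduction compared with water-treated beds of the same species.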

sugar beet = assay: Preemergent control of plant species; assay type: in vivo, Beta saccharifera; conditions: Beta vulgaris, pre-emergence, 336 h; 0.25 lb/acre; read-out: percent preemergent control
Method in brief: as §2

yellow foxtail = assay: Preemergent control of plant species; assay type: in vivo, Setaria lutescens; conditions: Setaria, pre-emergence, 336 h; 0.25 lb/acre; read-out: percent preemergent control
Method in brief: as §2

velvetleaf = assay: Preemergent control of plant species; assay type: in vivo, Abutilon theophrasti; conditions: Abutilon theophrasti, pre-emergence, 336 h; 0.25 lb/acre; read-out: percent preemergent control
Method in brief: as §2

annual morning glory = assay: Preemergent control of plant species; assay type: in vivo, Ipomoea spp.; conditions: Ipomoea, pre-emergence, 336 h; 0.25 lb/acre; read-out: percent preemergent control
Method in brief: as §2

corn = assay: Preemergent control of plant species; assay type: in vivo, Zea mays; conditions: Zea mays, pre-emergence, 336 h; 0.25 lb/acre; read-out: percent preemergent control
Method in brief: as §2

jimsonweed = assay: Preemergent control of plant species; assay type: in vivo, Datura stramonium; conditions: Datura stramonium, pre-emergence, 336 h; 0.25 lb/acre; read-out: percent preemergent control
Method in brief: as §2

rape = assay: Preemergent control of plant species; assay type: in vivo, Brassica napus; conditions: Brassica napus, pre-emergence, 336 h; 0.25 lb/acre; read-out: percent preemergent control
Method in brief: as §2

johnson grass = assay: Preemergent control of plant species; assay type: in vivo, Sorghum halepense; conditions: Sorghum halepense, pre-emergence, 336 h; 0.25 lb/acre; read-out: percent preemergent control
Method in brief: as §2

yellow nutsedge = assay: Preemergent control of plant species; assay type: in vivo, Cyperus esculentus; conditions: Cyperus, pre-emergence, 336 h; 0.25 lb/acre; read-out: percent preemergent control
Method in brief: as §2

barnyardgrass = assay: Preemergent control of plant species; assay type: in vivo, Echinochloa crusgalli; conditions: Echinochloa crus-galli, pre-emergence, 336 h; 0.25 lb/acre; read-out: percent preemergent control
Method in brief: as §2

corn (First In) = assay: Gametocidal activity in corn, postemergent application; assay type: in vivo; conditions: sprayed at three leaf stage
Procedure: The compounds of this invention are also plant gametocides depending on the dosage and timing of application and the species of plant to which the compounds are applied. For example, certain of the compounds were sprayed on corn seedlings at the three leaf stage of growth, and the seedlings were returned to the greenhouse for subsequent growth and observation. The corn variety was "First In". The chemicals were dissolved in acetone, and the acetone solution was diluted with water containing Tween 20 wetting agent such that the final spray solution contained 50% acetone and 0.1% Tween 20 in water. […] Tabulated below are data which illustrate the use of the compounds of this invention as plant gametocides in corn.

sorghum = assay: Preemergent control of plant species; assay type: in vivo, Sorghum vulgare; conditions: Sorghum, pre-emergence, 336 h; 0.25 lb/acre; read-out: percent preemergent control
Method in brief: as §2

rice = assay: Preemergent control of plant species; assay type: in vivo, Oryza sativa; conditions: Oryza sativa, pre-emergence, 336 h; 0.25 lb/acre; read-out: percent preemergent control
Method in brief: as §2

wheat = assay: Preemergent control of plant species; assay type: in vivo, Triticum aestivum; conditions: Triticum aestivum, pre-emergence, 336 h; 0.25 lb/acre; read-out: percent preemergent control
Method in brief: as §2

soybean = assay: Preemergent control of plant species; assay type: in vivo, Glycine max.; conditions: Glycine max, pre-emergence, 336 h; 0.25 lb/acre; read-out: percent preemergent control
Method in brief: as §2

SMILES	minimal effective concentration [1] [µg/mL]	minimal effective concentration [2] [µg/mL]	plant injury at 280.212 g/ha (cotton) [%]	plant injury at 280.212 g/ha (sugar beet) [%]	pest or weed control at 280.212 g/ha (yellow foxtail) [%]	pest or weed control at 280.212 g/ha (velvetleaf) [%]	pest or weed control at 280.212 g/ha (annual morning glory) [%]	plant injury at 280.212 g/ha (corn) [%]	pest or weed control at 280.212 g/ha (jimsonweed) [%]	plant injury at 280.212 g/ha (rape) [%]	pest or weed control at 280.212 g/ha (johnson grass) [%]	pest or weed control at 280.212 g/ha (yellow nutsedge) [%]	pest or weed control at 280.212 g/ha (barnyardgrass) [%]	concentration required to produce 100% control (gametocidal activity) (corn (First In)) [ppm]	plant injury at 280.212 g/ha (sorghum) [%]	plant injury at 280.212 g/ha (rice) [%]	plant injury at 280.212 g/ha (wheat) [%]	plant injury at 280.212 g/ha (soybean) [%]
Cc1ccccc1NS(=O)(=O)c1nc2ncc(Cl)cn2n1 [Compound 129]	400	400	–	–	–	–	–	–	–	–	–	–	–	–	–	–	–	–
Cc1ccn2nc(S(=O)(=O)N(C(=O)C(C)C)c3c(F)cccc3F)nc2n1 [Compound 277]	–	–	50	100	100	100	30	40	100	100	100	100	90	200	90	80	80	20
